Source: PubChem BioAssay (NCI)
Several values for one entry are separate records, joined by “and”; a condition that tells them apart may be missing. Identical values can stand only once.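 Protocol summary: plate cells (96-well), add compound at 5 concentrations, incubate 48 h, interpolate endpoints linearly. GI50: concentration for 50% inhibition of growth. The concentration for full growth arrest is given as TGI.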

Columns and labels:
Experiment in all cases: growth of human tumour cells (NCI), 48 h
HCC-2998 colon = tested on: HCC-2998 colon
LXFL 529 NSCLC = tested on: LXFL 529 NSCLC
UACC-62 melanoma = tested on: UACC-62 melanoma
SK-MEL-5 melanoma = tested on: SK-MEL-5 melanoma
CCRF-CEM leukemia = tested on: CCRF-CEM leukemia
SK-MEL-28 melanoma = tested on: SK-MEL-28 melanoma
NCI-H226 lung = tested on: NCI-H226 lung
PC-3 prostate = tested on: PC-3 prostate
BT-549 breast = tested on: BT-549 breast

SMILES | TGI (HCC-2998 colon) | TGI (LXFL 529 NSCLC) [µM] | TGI (UACC-62 melanoma) | TGI (SK-MEL-5 melanoma) | TGI (CCRF-CEM leukemia) | TGI (SK-MEL-28 melanoma) | TGI (NCI-H226 lung) | TGI (PC-3 prostate) | TGI (BT-549 breast) | GI50 (PC-3 prostate) [µM] | GI50 (HCC-2998 colon) [µM] | GI50 (UACC-62 melanoma) [µM] | GI50 (SK-MEL-5 melanoma) [µM] | GI50 (CCRF-CEM leukemia) [µM] | GI50 (SK-MEL-28 melanoma) [µM] | GI50 (BT-549 breast) [µM] | GI50 (NCI-H226 lung) [µM]
O=[N+]([O-])c1ccc(/C=C/c2ccc(/C=C/c3ccc([N+](=O)[O-])cc3[N+](=O)[O-])cc2)c([N+](=O)[O-])c1 | > 100 µM | > 100 | > 100 µM | > 100 µM | > 100 µM | > 100 µM | > 100 µM |  |  |  |  |  |  |  |  |  | 
N=C(N)SCc1ccc(Cl)c2ccccc12 (tested in a mixture with another compound) | 6.66 µM and 4.89 µM |  | 26.4 µM and 25.6 µM | 25.6 µM and 21.6 µM | 26.4 µM and 17.4 µM | 28.1 µM and 25.6 µM | 30.3 µM and 28.6 µM | 24.3 µM and 25.3 µM | 29.5 µM and 30.8 µM |  |  |  |  |  |  |  | 
O=C1[C@H](Cc2ccc(O)cc2)N2C(=O)CCN(C(=O)NCc3ccccc3)[C@H]2CN1Cc1cccc2ccccc12 | 23.2 µM |  | 25 µM | 11.4 µM | > 53.1 µM | 9.63 µM | 21.4 µM | 18.8 µM | 22.6 µM | 2.54 | 3.51 | 4.45 | 2.28 | 2.19 | 0.79 | 3.01 | 1.99
Nc1cc(C(F)(F)F)c(-c2nc(N3CCOCC3)nc(N3CCOCC3)n2)cn1 | > 88 µM |  | 1.38 µM | 2.54 µM | > 100 µM | 3.71 µM | 12.2 µM | > 100 µM | 3.84 µM | 0.258 | 0.633 | 0.202 | 0.384 | 2.97 | 0.248 | 0.265 | 0.384
CC1=C(C(=O)Nc2ccc3[nH]ncc3c2)C(c2ccc(F)cc2)N=C(c2ccc(C(F)(F)F)nc2)N1 (centres undefined) | > 25 µM |  | > 25 µM | > 25 µM | > 25 µM | > 25 µM | > 25 µM | > 25 µM | 18.2 µM | 13.1 | > 25 | 10.1 | 7.45 | 17 | > 19.9 | 5.28 | 3.99
CN1CCN(C(=O)/C=C/c2ccc([N+](=O)[O-])o2)CC1 | 38.1 µM |  | 23.4 µM | 20.4 µM | 27.9 µM | 49.3 µM | 60 µM | > 100 µM | 21.8 µM | 21.6 | 18.2 | 11.1 | 7.52 | 2.72 | 9.59 | 10.1 | 22.4
